Source: PMC7464159, “Triple Negative Breast Cancer and Breast Epithelial Cells Differentially Reprogram Glucose and Lipid Metabolism upon Treatment with Triterpenic Acids” (Biomolecules, 2020)

Test system: MCF-10A cells
Assay: 1H NMR metabolomics of polar (aqueous) cell extracts
Assay type: cell-based, human
Conditions: for number of metabolites altered: 48 h
Procedure: MDA-MB-231 and MCF-10A cells were seeded in 10-cm-diameter Petri dishes at a density of 6 × 10^5 cells/mL (10 mL per dish) and cultured for 24 h at 37 °C. […] Vehicle solvent control cells received DMSO (0.10% v/v). Samples were collected immediately after 48 h incubation or, to assess cellular recovery, medium was replaced with fresh growth medium (without TAs), and cells were incubated for additional 24 h before collection (48 + 24 h samples). Four independent assays were performed.
After incubation, culture medium was collected and centrifuged (1000× g, 5 min) and the supernatant stored at −80 °C until analysis. Culture medium without cells was placed under the same conditions and collected. Cell extraction was performed as described by Carrola et al.. Briefly, cells were washed four times with PBS and extracted with a mixture of methanol:chloroform:water (1:1:0.7). The resulting polar and organic phases were collected and then dried under vacuum or under a stream of nitrogen gas, respectively. All samples were stored at −80 °C and, at the time of analysis, dried polar extracts were reconstituted in 600 µL of deuterated phosphate buffer (100 mM, pH 7.4) containing 0.1 mM TSP-d4, while organic extracts were reconstituted in deuterated chloroform containing 0.03% TMS. Regarding medium samples, 540 μL were mixed with 60 μL of D2O containing 0.25% TSP-d4. Prior to analysis, 550 μL of each sample were transferred to 5 mm NMR tubes.
^1H NMR spectra of all samples were acquired on a Bruker Avance III HD 500 NMR spectrometer (University of Aveiro, Portuguese NMR Network) operating at 500.13 MHz for ^1H observation equipped with a 5 mm TXI probe. Standard 1D spectra (Bruker pulse programs ‘noesypr1d’, with water suppression, for medium samples and aqueous extracts, and ‘zg’ for organic extracts) were recorded with a 7002.8 Hz spectral width, 32 k data points, a 2 s relaxation delay and 512 scans. Spectral processing comprised exponential multiplication with 0.3 Hz line broadening, zero filling to 64 k data points, manual phasing, baseline correction, and chemical shift calibration to the TSP or TMS signal at 0 ppm. 2D ^1H-^1H total correlation (TOCSY) spectra, ^1H-^13C heteronuclear single quantum correlation (HSQC) spectra and J-resolved spectra were also registered for selected samples to assist spectral assignment. Metabolites were identified with the support of 2D spectra and the spectral reference databases BBIOREFCODE-2-0-0 (Bruker Biospin, Rheinstetten, Germany) and HMDB [28]. Selected signals were then integrated using the AmixViewer software […] (version 3.9.14, Bruker BioSpin, Rheinstetten, Germany) and normalized by the total spectral area. The magnitude of each metabolite change was assessed through the percentage of variation (and its respective error) in exposed samples relatively to controls, and through the effect size (ES) adjusted for small sample numbers (and respective standard error). Metabolite variations with absolute ES greater than 0.8 were expressed in a heatmap, colored as a function of the percentage of variation, employing the R statistical software.

## C=C(C)[C@@H]1CC[C@]2(C(=O)O)CC[C@]3(C)[C@H](CC[C@@H]4[C@@]5(C)CC[C@H](O)C(C)(C)[C@@H]5CC[C@]43C)[C@@H]12 [BA, betulinic acid]
BA 5µM, 48h
  1-MethyInicotinamide %var: 152.75%
  3-Hydroxyisobutyrate %var: -48.45%
  ATP %var: 0%
  Acetate %var: 33.50%
  Ala %var: -39.74%
  Asp %var: -48.70%
  Choline %var: 46.22%
  Citrate %var: -74.68%
  Cr %var: 59.47%
  Dimethylamine %var: -40.51%
  Formate %var: 91.07%
  Fumarate %var: -80.00%
  GPC %var: 307.70%
  GSH %var: -31.85%
  Gln %var: 0%
  Glu %var: -75.91%
  Glucose %var: -56.45%
  Glucose-1-phosphate %var: -93.58%
  Gly %var: 41.70%
  His %var: -25.16%
  Ile %var: 218.16%
  Lactate %var: 161.49%
  Leu %var: 418.85%
  NADH %var: 62.88%
  PC %var: -78.42%
  PCr %var: 0%
  Phe %var: 0%
  Pro %var: 80.04%
  Tyr %var: -16.91%
  UDP-GalNAc %var: 123.58%
  UDP-GlcNAc %var: 151.53%
  UDP-Glucose %var: -75.09%
  Val %var: 138.35%
  myo -Lno %var: -19.23%
  number of polar metabolites with altered intracellular levels: 31
BA 5µM, 48h+24h
  1-MethyInicotinamide %var: 56.61%
  3-Hydroxyisobutyrate %var: -48.51%
  ATP %var: 0%
  Acetate %var: 63.78%
  Ala %var: -65.18%
  Asp %var: -24.38%
  Choline %var: 0%
  Citrate %var: -61.27%
  Cr %var: 0%
  Dimethylamine %var: 0%
  Formate %var: 287.80%
  Fumarate %var: 0%
  GPC %var: 188.81%
  GSH %var: -24.73%
  Gln %var: 0%
  Glu %var: -47.27%
  Glucose %var: 0%
  Glucose-1-phosphate %var: -92.25%
  Gly %var: 0%
  His %var: -44.80%
  Ile %var: 36.26%
  Lactate %var: 0%
  Leu %var: 75.04%
  NADH %var: 0%
  PC %var: 0%
  PCr %var: 0%
  Phe %var: -24.03%
  Pro %var: 0%
  Tyr %var: -36.13%
  UDP-GalNAc %var: 0%
  UDP-GlcNAc %var: 0%
  UDP-Glucose %var: -66.89%
  Val %var: 10.36%
  myo -Lno %var: -52.77%

## C[C@H]1[C@H](C)CC[C@]2(C(=O)O)CC[C@]3(C)C(=CC[C@@H]4[C@@]5(C)CC[C@H](O)C(C)(C)[C@@H]5CC[C@]43C)[C@H]12 [UA, ursolic acid]
UA 10µM, 48h
  1-MethyInicotinamide %var: 38.46%
  3-Hydroxyisobutyrate %var: -23.71%
  ATP %var: 41.52%
  Acetate %var: 0%
  Ala %var: 44.32%
  Asp %var: -38.30%
  Choline %var: 31.99%
  Citrate %var: -36.91%
  Cr %var: -16.76%
  Dimethylamine %var: -53.26%
  Formate %var: 0%
  Fumarate %var: 0%
  GPC %var: 108.51%
  GSH %var: -30.60%
  Gln %var: 0%
  Glu %var: -21.17%
  Glucose %var: -71.26%
  Glucose-1-phosphate %var: -75.94%
  Gly %var: 40.31%
  His %var: 0%
  Ile %var: 211.80%
  Lactate %var: 0%
  Leu %var: 389.84%
  NADH %var: 34.09%
  PC %var: -26.30%
  PCr %var: 34.32%
  Phe %var: 22.52%
  Pro %var: 87.39%
  Tyr %var: 0%
  UDP-GalNAc %var: 62.26%
  UDP-GlcNAc %var: 60.69%
  UDP-Glucose %var: -19.78%
  Val %var: 151.36%
  myo -Lno %var: -13.14%
UA 10µM, 48h+24h
  1-MethyInicotinamide %var: 22.91%
  3-Hydroxyisobutyrate %var: -22.77%
  ATP %var: 0%
  Acetate %var: 0%
  Ala %var: 0%
  Asp %var: -26.58%
  Choline %var: 0%
  Citrate %var: -18.09%
  Cr %var: 0%
  Dimethylamine %var: -15.34%
  Formate %var: 0%
  Fumarate %var: -22.45%
  GPC %var: -32.45%
  GSH %var: -27.29%
  Gln %var: 16.14%
  Glu %var: 0%
  Glucose %var: -31.96%
  Glucose-1-phosphate %var: 0%
  Gly %var: 24.70%
  His %var: 0%
  Ile %var: 58.71%
  Lactate %var: 0%
  Leu %var: 82.57%
  NADH %var: 20.35%
  PC %var: -38.35%
  PCr %var: 24.82%
  Phe %var: 16.59%
  Pro %var: 49.66%
  Tyr %var: 13.28%
  UDP-GalNAc %var: 0%
  UDP-GlcNAc %var: 0%
  UDP-Glucose %var: 0%
  Val %var: 47.98%
  myo -Lno %var: 0%
UA 20µM, 48h
  1-MethyInicotinamide %var: 83.24%
  3-Hydroxyisobutyrate %var: -30.93%
  ATP %var: 53.13%
  Acetate %var: 0%
  Ala %var: 0%
  Asp %var: -46.10%
  Choline %var: 30.58%
  Citrate %var: -38.52%
  Cr %var: 0%
  Dimethylamine %var: -41.93%
  Formate %var: 0%
  Fumarate %var: 0%
  GPC %var: 160.13%
  GSH %var: -21.64%
  Gln %var: 0%
  Glu %var: -23.01%
  Glucose %var: -85.89%
  Glucose-1-phosphate %var: -78.61%
  Gly %var: 38.29%
  His %var: 0%
  Ile %var: 156.93%
  Lactate %var: 0%
  Leu %var: 297.70%
  NADH %var: 46.21%
  PCr %var: 0%
  Phe %var: 0%
  Pro %var: 69.18%
  Tyr %var: 0%
  UDP-GalNAc %var: 68.87%
  UDP-GlcNAc %var: 61.45%
  UDP-Glucose %var: -32.23%
  Val %var: 101.22%
  myo -Lno %var: 0%
UA 20µM, 48h+24h
  1-MethyInicotinamide %var: 50.44%
  3-Hydroxyisobutyrate %var: -30.69%
  ATP %var: 0%
  Acetate %var: 10.61%
  Ala %var: 0%
  Asp %var: -37.26%
  Choline %var: 0%
  Citrate %var: -32.19%
  Cr %var: 28.29%
  Dimethylamine %var: -23.93%
  Formate %var: 0%
  Fumarate %var: -34.69%
  GPC %var: 0%
  GSH %var: -26.66%
  Gln %var: 25.50%
  Glu %var: -11.32%
  Glucose %var: -67.35%
  Glucose-1-phosphate %var: -40.85%
  Gly %var: 31.50%
  His %var: 0%
  Ile %var: 94.71%
  Lactate %var: 0%
  Leu %var: 130.47%
  NADH %var: 55.81%
  PC %var: -38.16%
  PCr %var: 0%
  Phe %var: 27.29%
  Pro %var: 78.81%
  Tyr %var: 21.23%
  UDP-GalNAc %var: 0%
  UDP-GlcNAc %var: 0%
  UDP-Glucose %var: -20.07%
  Val %var: 70.45%
  myo -Lno %var: 0%
UA high concentration
  number of metabolites altered: 22
UA low concentration
  number of metabolites altered: 27
